# Reference: US20090247461A1, “METHODS FOR THERAPEUTIC TREATMENT OF PAIN” (priority 2004, published 2009)
# What was measured:
# [1] = tested on: sciatic nerve ligation injury model; experiment: Heat test before and after administration of serotonin depletor, opioid antagonist, α- or β-adrenergic receptor blocker; assay type: in vivo, rat; conditions: 3 weeks after ligation; for heat test with vs without / before vs after the depletor or blocker, control group: saline control group, 5,7-DHT intradural, naloxone 5 mg/kg, propranolol 10 mg/kg
# Experimental: (§1) A sciatic nerve ligation injury model was prepared by modifying the neuropathic pain model published by Bennett et al. according to the method of Takeba (Pain, Vol. 33, pp. 87-107, 1988; Ehime Igaku (Ehime Medical Journal), Vol. 21, pp. 192-206, 2002). Under anesthesia by inhalation of 3% halothane and nitrous oxide, bilateral sciatic nerves of 8- to 12-week old female Wistar rats (Clea Japan, Inc., Osaka) were exposed and ligated at the central level of the femur along with a 27-gauge injection needle on the both sides by using a 4-0 polyglycolic acid suture at 4 sites at intervals of 1 mm for both sides. Then, the injection needle was removed to prepare a sciatic nerve ligation injury model. The ligation was attained to such a degree that the crural muscles slightly contractable by a stimulus given to the nerve, and care was taken not to cause injury in the axon by the ligation operation itself.
# A solution of ginsenoside Rb1 (0.10 or 0.50 μg/μl) in a volume of 120 μl or an equivalent volume of saline was intravenously administered by one-shot to rats 24 hours after the sciatic nerve ligation. Then, ginsenoside Rb1 was intravenously administered continuously by using the continuous injection pump at a dose of 12 μg/day (hereinafter referred to as “S12”) or 60 μg/day (hereinafter referred to as “S60”) and a rate of 0.25 μL/hour for 4 weeks. Similarly, saline was intravenously administered continuously for 4 weeks as the control group.
# (§2) To determine thermal paw withdrawal latency, a heat test was performed by using Plantar Test produced by Ugo Basile (Planter test 7370, Ugo Basile, Italy) according to the method of Hargreaves et al. (Pain, Vol. 32, pp. 77-88, 1988). Rats were placed on a plastic table maintained at a temperature of 23 to 24° C. and stimulated on the sole by using a thermal stimulator, and withdrawal latency (seconds) was measured. Occurrence of hyperalgesia was determined on the basis of shortening of the latency. The latency was measured 3 times for both the soles always at an interval of 5 minutes, and the average of the results of 6 times in total of measurements was used as a measured value.
# To elucidate the action mechanism of Rb1, examination was performed by using depletors or blockers against substances reported to be involved in the descending pain signal transmission in the spinal cord, such as serotonin depletors, opioid receptor antagonists, α-adrenergic receptor blockers, and β-adrenergic receptor blockers (Biol. Pharm. Bull., 22-7, pp. 691-697, 1999). The heat test was performed 24 hours after the sciatic nerve ligation, and only rats showing an average latency for both feet of 90% or lower of the same before the operation were used. Animals in a number of 48 in total were arbitrarily divided into 8 groups (6 animals per group) to prepare Rb1-administered groups and a control group. A serotonin depletor, opioid receptor antagonist, α-adrenergic receptor blocker and β-adrenergic receptor blocker were each administered 3 weeks after the ligation, the heat test was performed before and after the administration, and the results were compared.
# The serotonin depletor, 5,7-dihydroxytryptamine (5,7-DHT, ICN Biomedicals Inc., Ohio, U.S.A), was intradurally administered in an amount of […] 1 week before the measurement, and the heat test was performed 3 weeks after the ligation. Further, the heat test was performed 3 weeks after the ligation, on the following day, 5 mg/kg of the opioid receptor antagonist, naloxone (USP, Rockville, U.S.A), 10 mg/kg of the β-adrenergic receptor blocker, propranolol (SIGMA-ALDRICH Co., St. Louis, U.S.A), and 20 mg/kg of the α-adrenergic receptor blocker, phentolamine (SIGMA-ALDRICH Co., St. Louis, U.S.A), were each subcutaneously injected, and the heat test was performed again one hour later.
# mice = conditions: cited from earlier work
# [2] = tested on: transient forebrain ischemia; conditions: continuously injected into the brain ventricle for 7 days after ischemia, cited from earlier work
# [3] = tested on: sciatic nerve ligation injury model; experiment: Heat test (thermal paw withdrawal latency) in sciatic nerve ligation injury model; assay type: in vivo, rat; conditions: continuously administered i.v. for 4 weeks from 24 hours after sciatic nerve ligation (12 or 60 μg/day); 3 weeks after the ligation and thereafter; vs saline control
# Experimental: as §1, with “The ligation was attained to such a degree that the crural muscles slightly contractable by a stimulus given to the nerve, and care was taken not to cause injury in the axon by the ligation operation itself.” left out
# as §2
# [4] = tested on: transient forebrain ischemia; conditions: oral (red ginseng powder) or intraperitoneal (crude ginseng saponin, ginsenoside Rb1) over one week before ischemia; cited from earlier work
# [5] = tested on: α2A-adrenergic receptor protein; experiment: Expression of α2A-adrenergic receptor protein in the spinal cord (immunoblot); assay type: in vivo, rat; conditions: 60 μg/day i.v. continuously; 3 weeks after sciatic nerve ligation; compared with control group and sham operation group
# Experimental: The spinal cord in the sciatic nerve innervation territory was removed from rats of the sham operation group (n=3) and rats 3 weeks after the sciatic nerve ligation (each n=3) which were intravenously administered with saline or 60 μg/day of ginsenoside Rb1 (S60) continuously from 24 hours after the sciatic nerve ligation, added to 10 times in volume of 50 mM phosphate buffer, 100 μM pAPMSF, 0.5% Triton-X and 0.5% SDS, and homogenized. The homogenate was added with a half volume of 6% SDS (+β-mercaptoethanol), incubated at 99° C. for 10 minutes and centrifuged at 15,000 rpm and 4° C. for 10 minutes, and the supernatant was used as a sample. Electrophoresis was performed on 10% SDS polyacrylamide, and then the protein was transferred on a polyvinylidine difluoride membrane (Millipore, Bedford, U.S.A.) by using a transblotting apparatus. Western blotting was performed by using anti-α2A-adrenoceptor antibody (ALEXIS BIOCHEMICALS, San Diego, USA) as the primary antibody and anti-rabbit IgG conjugated with alkaline phosphatase (SIGMA Chemicals, St. Louis, U.S.A) as the secondary antibody.
# [6] = tested on: α2A-adrenergic receptor mRNA; experiment: Measurement of α2A-adrenergic receptor mRNA in the spinal cord by RT-PCR; assay type: in vivo, rat; conditions: 60 μg/day i.v. continuously; 3 weeks after sciatic nerve ligation; compared with control group and sham operation group
# Experimental: The spinal cord in the sciatic nerve innervation territory was removed from rats of the sham operation group (n=7) and rats 3 weeks after the sciatic nerve ligation (each n=7) which were intravenously administered with saline or 60 μg/day of ginsenoside Rb1 (S60) continuously from 24 hours after the sciatic nerve ligation, and total RNA was extracted by using ISOGEN (Nippon Gene, Tokyo). The extracted total RNA was treated with DNase, and single-stranded cDNA was synthesized by using oligo-dT primers and Moloney murine leukemia virus reverse transcriptase (Life Technologies, Rockville, USA). The sequences of the primers used in this example were as follows.
# PCR was performed under the following condition using Taq polymerase (Takara, Tokyo). For β-actin, after a reaction at 94° C. for 5 minutes, a cycle of heat denaturation at 94° C. for 1 minute, annealing at 55° C. for 1 minute and 30 seconds and elongation at 72° C. for 1 minute and 30 seconds was repeated 25 times. For α2A-adrenergic receptor, after a reaction at 94° C. for 2 minutes, a cycle of heat denaturation at 94° C. for 1 minute, annealing at 60° C. for 1 minute and elongation at 72° C. for 1 minute was repeated 30 times. As the internal control, β-actin was used.
# [7] = tested on: sciatic nerve ligation injury model; experiment: Pressure test (von Frey withdrawal threshold) in sciatic nerve ligation injury model; assay type: in vivo, rat; conditions: continuously administered i.v. for 4 weeks from 24 hours after sciatic nerve ligation, vs saline control
# Experimental: as §1, with “The ligation was attained to such a degree that the crural muscles slightly contractable by a stimulus given to the nerve, and care was taken not to cause injury in the axon by the ligation operation itself.” left out
# To measure the pain threshold for a mechanical stimulus (von Frey withdrawal threshold), the von Frey hair test was performed in the same manner as in the Semmes-Weinstein test (Z. Gesamte Neurol. Psychiat., Vol. 79, pp. 324-333, 1922; Perceptual and Motor Skills, Vol. 14, pp. 351-354, 1962; The Journal of Hand Surgery, Vol. 3, pp. 211-216, 1978), which is clinically performed. […] In this procedure, the pain threshold (g) for the pressure stimuli to both the soles was measured twice for each time, and the average of the results obtained in measurements of 4 times in total was used as a measured value.
smiles,measurement,setting,value
"NCCc1c[nH]c2c(O)cc(O)cc12 [5,7-DHT, 5,7-dihydroxytryptamine, reference compound]","heat test with vs without / before vs after the depletor or blocker, control group",[1]; phentolamine 20 mg/kg s.c.,no significant difference
"CC(C)=CCC[C@](C)(O[C@@H]1O[C@H](CO[C@@H]2O[C@@H](CO)[C@H](O)[C@H]2O)[C@@H](O)[C@H](O)[C@H]1O)[C@H]1CC[C@]2(C)[C@@H]1[C@H](O)C[C@@H]1[C@@]3(C)CC[C@H](O[C@@H]4O[C@H](CO)[C@@H](O)[C@H](O)[C@H]4O[C@@H]4O[C@H](CO)[C@@H](O)[C@H](O)[C@H]4O)C(C)(C)[C@@H]3CC[C@]12C [Rc, ginsenoside Rc]",analgesic effect,mice,analgesic effect
"CC(C)=CCC[C@](C)(O[C@@H]1O[C@H](CO)[C@@H](O)[C@H](O)[C@H]1O)[C@H]1CC[C@]2(C)[C@@H]1[C@H](O)C[C@@H]1[C@@]3(C)CC[C@H](O[C@@H]4O[C@H](CO)[C@@H](O)[C@H](O)[C@H]4O[C@@H]4O[C@H](CO)[C@@H](O)[C@H](O)[C@H]4O)C(C)(C)[C@@H]3CC[C@]12C [Rd, ginsenoside Rd]",analgesic effect,mice,analgesic effect
"CC(C)=CCC[C@](C)(O[C@@H]1O[C@H](CO)[C@@H](O)[C@H](O)[C@H]1O)[C@H]1CC[C@]2(C)[C@@H]1[C@H](O)C[C@@H]1[C@@]3(C)CC[C@H](O)C(C)(C)[C@@H]3[C@@H](O[C@@H]3O[C@H](CO)[C@@H](O)[C@H](O)[C@H]3O[C@@H]3O[C@@H](C)[C@H](O)[C@@H](O)[C@H]3O)C[C@]12C [Re, ginsenoside Re]",analgesic effect,mice,analgesic effect
"CC(C)=CCC[C@](C)(O)[C@H]1CC[C@]2(C)[C@@H]1[C@H](O)C[C@@H]1[C@@]3(C)CC[C@H](O)C(C)(C)[C@@H]3[C@@H](O[C@@H]3O[C@H](CO)[C@@H](O)[C@H](O)[C@H]3O[C@@H]3O[C@H](CO)[C@@H](O)[C@H](O)[C@H]3O)C[C@]12C [Rf, ginsenoside Rf]",analgesic effect,mice,analgesic effect
CC(C)=CCC[C@](C)(O[C@@H]1O[C@H](CO[C@@H]2O[C@H](CO)[C@@H](O)[C@H](O)[C@H]2O)[C@@H](O)[C@H](O)[C@H]1O)[C@H]1CC[C@]2(C)[C@@H]1[C@H](O)C[C@@H]1[C@@]3(C)CC[C@H](O[C@@H]4O[C@H](CO)[C@@H](O)[C@H](O)[C@H]4O[C@@H]4O[C@H](CO)[C@@H](O)[C@H](O)[C@H]4O)C(C)(C)[C@@H]3CC[C@]12C [ginsenoside Rb1],"heat test, animals administered vs not administered with 5,7-DHT, Rb1-administered groups","[1]; 5,7-DHT intradurally 60 μL g 1 week before measurement",no significant difference
same,"heat test before and after administration of naloxone, Rb1-administered groups","[1]; naloxone 5 mg/kg s.c., heat test again one hour later",no significant difference
same,"hyperalgesia suppressing effect after administration of phentolamine, Rb1-administered groups","[1]; phentolamine 20 mg/kg s.c., heat test again one hour later",significantly inhibited
same,"heat test before and after administration of propranolol, Rb1-administered groups","[1]; propranolol 10 mg/kg s.c., heat test again one hour later",no significant difference
same,delayed nerve cell death in the hippocampus CA1 region,[2],significantly reduced
same,response latency in a passive avoidance learning experiment,"[2]; dose-dependent, compared with a control",significantly prolonged
same,"hyperalgesia (heat test, withdrawal latency)",[3],hyperalgesia was significantly relieved
same,delayed nerve cell death,[4],inhibition of delayed nerve cell death
same,learning and behavioral impairment,[4],improvement of learning and behavioral impairment
same,expression level of the α2A-adrenergic receptor protein in the spinal cord,[5],significantly increased
same,expression level of the α2A-adrenergic receptor mRNA in the spinal cord,[6],significantly increased
same,"allodynia (pressure test, von Frey pain threshold)",[7],allodynia was not ameliorated
same,"allodynia (pressure test, von Frey pain threshold)",[7]; listed as Rb1,amelioration of allodynia was not observed
"C=CCN1CC[C@]23c4c5ccc(O)c4O[C@H]2C(=O)CC[C@@]3(O)[C@H]1C5 [naloxone, reference compound]","heat test with vs without / before vs after the depletor or blocker, control group",[1]; phentolamine 20 mg/kg s.c.,no significant difference
"Cc1ccc(N(CC2=NCCN2)c2cccc(O)c2)cc1 [phentolamine, reference compound]","heat test with vs without / before vs after the depletor or blocker, control group",[1]; phentolamine 20 mg/kg s.c.,no significant difference
"CC(C)NCC(O)COc1cccc2ccccc12 (stereo not drawn) [propranolol, reference compound]","heat test with vs without / before vs after the depletor or blocker, control group",[1]; phentolamine 20 mg/kg s.c.,no significant difference
